Measurements: patent US20250101065A1, “REVERSE PEPTIDES FROM CORONAVIRUS FOR IMMUNOGENIC PURPOSES” (Emergex Vaccines Holding Limited, priority 2021, published 2025)
No end group written: not given here.

Tests used:
[1] = test system: human PBMCs; test: IFN-gamma ELISPOT after stimulation of PBMCs with negative sense SARS-COV-2 peptides; type: cell-based
[2] = test system: CD3+ T cells of PBMCs; test: Flow cytometry analysis of T cell surface markers after peptide stimulation of PBMCs; type: cell-based, human
Procedure: At day 7 post-stimulation, remaining PBMCs were resuspended in flow cytometry buffer (PBS+1% BSA+2 mM EDTA) at a concentration of 1×10^6 cells/mL, and blocked for at least 10 minutes. Cells were then aliquoted in a 96-well plate, centrifuged (5 mins/[…]/300×g), and resuspended in 45 μL buffer. Live/Dead stain was added (Fixable Near IR) at 1 μL in 1000 μL, and cells incubated at […] for 10 minutes in the dark. 120 μL buffer was added, samples were centrifuged for 5 mins, supernatants discarded and wash repeated with 200 μL buffer. Cells were then resuspended in buffer containing antibodies to T cell markers at the appropriate concentration (final staining volume 50 μL) and incubated for at least 30 minutes in the dark at […]
120 μL buffer was added to cell samples, centrifuged for 5 mins, supernatants discarded. This wash step was then repeated. Compensation beads were incubated with the individual antibodies at the same concentration. Voltages on the Attune flow cytometer were adjusted using antibody-stained compensation beads, as well as unstained and NIR-stained cells.
Acquisition was set to acquire at least 150,000 events on CD3 gated cells.
PBMCs were stained with a panel of antibodies (as listed in the previous section) against cell surface markers to characterize different T cell populations, such as naïve T cells (A), Central memory T cells (B), Effector memory T cells (C) and (D), and resident memory T cells (E). In addition, activation markers were also analysed (F) to (I). The percentage of positive cells gated on CD3+T cell populations were plotted.

[3] = PBMCs from EVB00028, day 7 post-stimulation

Sequence | IFN-gamma ELISPOT reactivity ([1]; all three donors (EVB00028, EVB00031, EVB00033), 7 days stimulation, 24 h re-stimulation) | Activation of CD3+ cells (upregulation of CD69, CD38, OX40/CD25, PDL1/CD25) [2, 3] | Activation of CD3+ cells (upregulation of CD69, CD38, OX40/CD25, PDL1/CD25) ([2]; PBMCs from EVB00033, day 7 post-stimulation) | IFN-gamma ELISPOT reactivity ([1]; donor EVB00033) | IFN-gamma ELISPOT reactivity ([1]; donors EVB00028 and EVB00031)
LYVALLVALLTCQ [SEQ ID NO: 6, LYVALLVALLTCQ] | strong reactivity | induced activation | similarly activated | – | –
VALLTCQTIGLCN [SEQ ID NO: 11] | – | induced activation | – | reacted strongly | –
VFTLHSRTSF [SEQ ID NO: 12] | – | – | – | – | reacted strongly
